Experimental data from ChEMBL document CHEMBL3885861, “Open TG-GATES”.

Species: Rattus norvegicus
Assay: Open TG-GATES - Regimen: Daily Repeat
Assay type: toxicity, organism-based, Sprague-Dawley
Parameters: regimen Daily Repeat, gender Male, age 6 weeks
Conditions: in vivo, po, route gavage; for Bas / Eos / Fbg / Hb / Ht / MCHC / MCV / Mono / Neu / Plat / RBC / Ret / WBC: tissue Blood; for KIDNEY_L / KIDNEY_R / KIDNEY_TOTAL: tissue Kidney; for LIVER: tissue Liver; for ALP / AST / BUN / CRE / DBIL / GLC / K / LDH / Na / PL / RALB / TBIL / TC / TG / TP / gamma-GTP / IP: tissue Plasma
[1] = 0 mg/kg, 72 h, dose level Control, time 3 day
[2] = 0 mg/kg, […], dose level Control, time 7 day
[3] = 0 mg/kg, […], dose level Control, time 14 day
[4] = 0 mg/kg, […], dose level Control, time 28 day
[5] = 20 mg/kg, 72 h, dose level Low, time 3 day
[6] = 20 mg/kg, […], dose level Low, time 7 day
[7] = 20 mg/kg, […], dose level Low, time 14 day
[8] = 20 mg/kg, […], dose level Low, time 28 day

CO[C@H]1/C=C/O[C@@]2(C)Oc3c(C)c(O)c4c(O)c(c(/C=N/N5CCN(C)CC5)c(O)c4c3C2=O)NC(=O)/C(C)=C\C=C\[C@H](C)[C@H](O)[C@@H](C)[C@@H](O)[C@@H](C)[C@H](OC(C)=O)[C@@H]1C [RIFAMPIN]
TERMINAL_BW [1]: 242.1 g | Bas [1]: 0% | Eos [1]: 1% | Fbg [1]: 239 mg/dL | Hb [1]: 13.9 g/dL | Ht [1]: 42% | MCHC [1]: 33.1% | MCV [1]: 63.9 fL | Mono [1]: 7.2% | Neu [1]: 13.8% | Plat [1]: 126 x10_4/uL | RBC [1]: 657.6 x10_4/ul | Ret [1]: 6.4% | WBC [1]: 129.1 x10_2/uL | KIDNEY_L [1]: 1 g | KIDNEY_R [1]: 1 g | KIDNEY_TOTAL [1]: 2 g | LIVER [1]: 12.4 g | ALP [1]: 966.4 IU/L | AST [1]: 62.4 IU/L | BUN [1]: 19 mg/dL | CRE [1]: 0.6 mg/dL | DBIL [1]: 0.004 mg/dL | GLC [1]: 199.2 mg/dL | K [1]: 5 meq/L | LDH [1]: 110.6 IU/L | Na [1]: 139.8 meq/L | PL [1]: 157 mg/dL | RALB [1]: 3.7 g/dL | TBIL [1]: 0.3 mg/dL | TC [1]: 83.8 mg/dL | TG [1]: 112.8 mg/dL | TP [1]: 6.1 g/dL | gamma-GTP [1]: 2 IU/L | TERMINAL_BW [2]: 275.2 g | TERMINAL_BW [3]: 316.4 g | TERMINAL_BW [4]: 390.1 g | Bas [2]: 0% | Eos [2]: 0% | Fbg [2]: 231.8 mg/dL | Hb [2]: 14.1 g/dL | Ht [2]: 42.8% | MCHC [2]: 33.1% | MCV [2]: 63.2 fL | Mono [2]: 6.2% | Neu [2]: 13.6% | Plat [2]: 107.2 x10_4/uL | RBC [2]: 677.2 x10_4/ul | Ret [2]: 5.8% | WBC [2]: 122.2 x10_2/uL | Bas [3]: 0% | Eos [3]: 0.8% | Fbg [3]: 235.6 mg/dL | Hb [3]: 15 g/dL | Ht [3]: 45% | MCV [3]: 59.6 fL | Mono [3]: 6% | Neu [3]: 11.8% | Plat [3]: 112.5 x10_4/uL | RBC [3]: 754.8 x10_4/ul | Ret [3]: 3.5% | WBC [3]: 153.6 x10_2/uL | Bas [4]: 0% | Eos [4]: 0.8% | Hb [4]: 15.7 g/dL | Ht [4]: 47% | MCHC [4]: 33.4% | MCV [4]: 58.9 fL | Mono [4]: 3% | Neu [4]: 12.4% | RBC [4]: 799.6 x10_4/ul | Ret [4]: 2.2% | KIDNEY_L [2]: 1.1 g | KIDNEY_R [2]: 1.1 g | KIDNEY_TOTAL [2]: 2.3 g | KIDNEY_L [3]: 1.2 g | KIDNEY_R [3]: 1.2 g | KIDNEY_TOTAL [3]: 2.4 g | KIDNEY_L [4]: 1.4 g | KIDNEY_R [4]: 1.4 g | KIDNEY_TOTAL [4]: 2.7 g | LIVER [2]: 13.1 g | LIVER [3]: 13.9 g | LIVER [4]: 16 g | ALP [2]: 827 IU/L | AST [2]: 68 IU/L | BUN [2]: 17.8 mg/dL | CRE [2]: 0.6 mg/dL | DBIL [2]: 0.004 mg/dL | GLC [2]: 198.6 mg/dL | IP [2]: 8.3 mg/dL | K [2]: 4.9 meq/L | LDH [2]: 108.4 IU/L | Na [2]: 140.6 meq/L | PL [2]: 150 mg/dL | RALB [2]: 3.9 g/dL | TBIL [2]: 0.3 mg/dL | TC [2]: 74.6 mg/dL | TG [2]: 132.6 mg/dL | TP [2]: 6.1 g/dL | gamma-GTP [2]: 1.8 IU/L | ALP [3]: 668.4 IU/L | AST [3]: 55.2 IU/L | BUN [3]: 18.2 mg/dL | CRE [3]: 0.6 mg/dL | DBIL [3]: 0.066 mg/dL | GLC [3]: 202.8 mg/dL | IP [3]: 7.9 mg/dL | K [3]: 5 meq/L | LDH [3]: 78.4 IU/L | Na [3]: 139.6 meq/L | PL [3]: 154.2 mg/dL | RALB [3]: 3.9 g/dL | TBIL [3]: 0.3 mg/dL | TC [3]: 68.6 mg/dL | TG [3]: 205.8 mg/dL | TP [3]: 6.3 g/dL | gamma-GTP [3]: 1.4 IU/L | ALP [4]: 557.2 IU/L | AST [4]: 56.4 IU/L | BUN [4]: 20.2 mg/dL | CRE [4]: 0.6 mg/dL | DBIL [4]: 0.014 mg/dL | GLC [4]: 179.8 mg/dL | IP [4]: 7.2 mg/dL | K [4]: 4.9 meq/L | LDH [4]: 77.2 IU/L | Na [4]: 140.6 meq/L | PL [4]: 157.4 mg/dL | RALB [4]: 4 g/dL | TBIL [4]: 0.3 mg/dL | TC [4]: 79.6 mg/dL | TG [4]: 165 mg/dL | TP [4]: 6.3 g/dL | gamma-GTP [4]: 0.8 IU/L | TERMINAL_BW [5]: 234.9 g | Bas [5]: 0% | Eos [5]: 0.8% | Fbg [5]: 239.4 mg/dL | Hb [5]: 14 g/dL | Ht [5]: 42.3% | MCHC [5]: 33% | MCV [5]: 62.8 fL | Mono [5]: 8% | Neu [5]: 7.2% | Plat [5]: 125.9 x10_4/uL | RBC [5]: 673.8 x10_4/ul | Ret [5]: 5.5% | WBC [5]: 119.2 x10_2/uL | KIDNEY_L [5]: 1 g | KIDNEY_R [5]: 1 g | KIDNEY_TOTAL [5]: 2 g | LIVER [5]: 10.7 g | ALP [5]: 787.6 IU/L | AST [5]: 66.8 IU/L | BUN [5]: 16 mg/dL | CRE [5]: 0.5 mg/dL | DBIL [5]: 0.002 mg/dL | GLC [5]: 194.8 mg/dL | IP [5]: 8.8 mg/dL | K [5]: 4.6 meq/L | LDH [5]: 113.2 IU/L | Na [5]: 139.4 meq/L | RALB [5]: 3.6 g/dL | TBIL [5]: 0.3 mg/dL | TC [5]: 73.4 mg/dL | TG [5]: 66 mg/dL | TP [5]: 5.8 g/dL | gamma-GTP [5]: 1.8 IU/L | TERMINAL_BW [6]: 264.5 g | TERMINAL_BW [7]: 308 g | TERMINAL_BW [8]: 375.5 g | Bas [6]: 0% | Eos [6]: 0.8% | Fbg [6]: 232.6 mg/dL | Hb [6]: 14 g/dL | Ht [6]: 41.7% | MCHC [6]: 33.4% | MCV [6]: 63.4 fL | Mono [6]: 4.8% | Neu [6]: 9% | Plat [6]: 115.2 x10_4/uL | RBC [6]: 658 x10_4/ul | Ret [6]: 5.9% | WBC [6]: 129.4 x10_2/uL | Bas [7]: 0% | Eos [7]: 0.8% | Fbg [7]: 227.2 mg/dL | Hb [7]: 14.7 g/dL | Ht [7]: 44% | MCHC [7]: 33.4% | MCV [7]: 60.7 fL | Mono [7]: 2.8% | Neu [7]: 6% | Plat [7]: 121.9 x10_4/uL | RBC [7]: 726.2 x10_4/ul | Ret [7]: 3.5% | WBC [7]: 131.2 x10_2/uL | Bas [8]: 0% | Eos [8]: 1% | Fbg [8]: 225 mg/dL | Hb [8]: 15.6 g/dL | Ht [8]: 46.4% | MCHC [8]: 33.5% | MCV [8]: 56.7 fL | Mono [8]: 4.4% | Neu [8]: 7.6% | Plat [8]: 107.2 x10_4/uL | RBC [8]: 819 x10_4/ul | Ret [8]: 2% | WBC [8]: 119 x10_2/uL | KIDNEY_L [6]: 1.1 g | KIDNEY_R [6]: 1.1 g | KIDNEY_TOTAL [6]: 2.2 g | KIDNEY_L [7]: 1.2 g | KIDNEY_R [7]: 1.3 g | KIDNEY_TOTAL [7]: 2.5 g | KIDNEY_L [8]: 1.3 g | KIDNEY_R [8]: 1.3 g | KIDNEY_TOTAL [8]: 2.6 g | LIVER [6]: 12.2 g | LIVER [7]: 13.1 g | LIVER [8]: 14.5 g | ALP [6]: 835.8 IU/L | AST [6]: 65.4 IU/L | BUN [6]: 16.8 mg/dL | CRE [6]: 0.5 mg/dL | DBIL [6]: 0.016 mg/dL | GLC [6]: 193.4 mg/dL | IP [6]: 7.7 mg/dL | K [6]: 5.1 meq/L | LDH [6]: 96.6 IU/L | Na [6]: 138.8 meq/L | PL [6]: 156.2 mg/dL | RALB [6]: 3.8 g/dL | TBIL [6]: 0.3 mg/dL | TC [6]: 80.6 mg/dL | TG [6]: 120.4 mg/dL | TP [6]: 5.8 g/dL | gamma-GTP [6]: 1.8 IU/L | ALP [7]: 712.2 IU/L | AST [7]: 56.6 IU/L | BUN [7]: 18.6 mg/dL | CRE [7]: 0.5 mg/dL | DBIL [7]: 0.04 mg/dL | GLC [7]: 190.2 mg/dL | IP [7]: 7.7 mg/dL | K [7]: 4.9 meq/L | LDH [7]: 75.8 IU/L | Na [7]: 140 meq/L | PL [7]: 159.8 mg/dL | RALB [7]: 3.9 g/dL | TBIL [7]: 0.3 mg/dL | TC [7]: 77.4 mg/dL | TG [7]: 168.2 mg/dL | TP [7]: 6.1 g/dL | gamma-GTP [7]: 0.8 IU/L | ALP [8]: 548.6 IU/L | AST [8]: 59.4 IU/L | BUN [8]: 18.6 mg/dL | CRE [8]: 0.6 mg/dL | DBIL [8]: 0.016 mg/dL | GLC [8]: 187.8 mg/dL | IP [8]: 7.1 mg/dL | K [8]: 4.3 meq/L | LDH [8]: 84.8 IU/L | Na [8]: 141.2 meq/L | PL [8]: 146.8 mg/dL | RALB [8]: 4.1 g/dL | TBIL [8]: 0.3 mg/dL | TC [8]: 76.8 mg/dL | TG [8]: 121.4 mg/dL | TP [8]: 6.3 g/dL | gamma-GTP [8]: 1.6 IU/L
